Measurements taken from patent US5686486A, “4-hydroxy-benzopyran-2-ones and 4-hydroxy-cycloalkyl[b]pyran-2-ones useful to treat retroviral infections” (priority 1995, dated 1997).
“And” between values parts separate entries of the source, which are not always exact repeats. Identical values can stand only once. Counter-ions that a name gives are not always drawn.

Tests used:
HIV-1 protease [1] = biological target: T1, HIV-1 protease (Human immunodeficiency virus type 1 group M subtype B, UniProt P04585); experiment: biochemical; conditions: for inhibition at 0.123 µM: read-out: HIV-1 Protease % Inhib, dose 0.123 uM; for inhibition at 0.37 µM: read-out: HIV-1 Protease % Inhib, dose 0.370 uM; for inhibition at 1.1 µM: read-out: HIV-1 Protease % Inhib, dose 1.100 uM; for inhibition at 3.3 µM: read-out: HIV-1 Protease % Inhib, dose 3.300 uM; for inhibition at 10 µM: read-out: HIV-1 Protease % Inhib, dose 10.000 uM; for inhibition at 30 µM: read-out: HIV-1 Protease % Inhib, dose 30.000 uM
Method in brief: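 Biotinylated, FITC-labeled peptide substrate (20 μl of 0.2 μM) incubated with HIV-1 protease (10 μl of 0.1 μM) and compound in 0.1 M sodium acetate pH 5.5, 1.0 M NaCl, 0.05% NP-40, 1 h, room temperature, dark. Streptavidin beads then capture uncleaved substrate; filtered labeled product read by fluorescence, giving percent inhibition.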

HIV-1 protease [2] = biological target: T1, HIV-1 protease; experiment: biochemical; conditions: read-out: HIV-1 FITC KI
Method in brief: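 Ki from two-fold serial inhibitor dilutions (24–48 concentrations) with 40 nM HIV-1 protease stock and 200 μM substrate stock, 90 min at room temperature; stopped with avidin beads. Reference inhibitor run in parallel; Ki by nonlinear least-squares fit.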

| SMILES | inhibition at 0.123 µM (HIV-1 protease [1]) [%] | inhibition at 0.37 µM (HIV-1 protease [1]) [%] | inhibition at 1.1 µM (HIV-1 protease [1]) [%] | inhibition at 3.3 µM (HIV-1 protease [1]) [%] | inhibition at 10 µM (HIV-1 protease [1]) [%] | inhibition at 30 µM (HIV-1 protease [1]) [%] | Ki (HIV-1 protease [2]) | HIV-1 Protease % Inhib (HIV-1 protease [1]; dose 3.300 uM) | HIV-1 Protease % Inhib (HIV-1 protease [1]; dose 10.000 uM) | HIV-1 Protease % Inhib (HIV-1 protease [1]; dose 30.000 uM) [%] | HIV-1 Protease % Inhib (HIV-1 protease [1]; dose 0.123 uM) [%] | HIV-1 Protease % Inhib (HIV-1 protease [1]; dose 0.370 uM) [%] | HIV-1 Protease % Inhib (HIV-1 protease [1]; dose 1.100 uM) [%] |
| --- | --- | --- | --- | --- | --- | --- | --- | --- | --- | --- | --- | --- | --- |
| O=c1oc2c(c(O)c1C(c1cccc(NS(=O)(=O)CCCI)c1)C1CC1)CCCCCC2 (stereo not shown) [Example 365C, 3-Iodo-N-[3-[cyclopropyl(5,6,7,8,9,10-hexahydro-4-hydroxy-2-oxo-2H-cycloocta[b]pyran-3-yl)methyl]phenyl]-1-propanesulfonamide] | 63 | 93.6 | 102 | 71.5 | 87.5 | 83.5 | 0.0166 µM |  |  |  |  |  |  |
| CCCC(c1ccccc1)c1c(O)c2c(oc1=O)CCCCCC2 (stereo not shown) [Example 369, 5,6,7,8,9,10-Hexahydro-4-hydroxy-3-(1-phenylbutyl)-2H-cycloocta[b]pyran-2-one] | 54.9 | 83.5 | 96 | 97.1 | 111 | 93.9 | 0.0285 µM |  |  |  |  |  |  |
| CC(C)C(c1cccc(N)c1)c1c(O)c2c(oc1=O)CCCCCC2 (stereo not shown) [Example 371, 3-[1-(3-Aminophenyl)-2-methylpropyl]-5,6,7,8,9,10-hexahydro-4-hydroxy-2H-cycloocta[b]pyran-2-one] | 86.8 | 109 | 110 | 113 | 108 | 110 | 0.00735 µM |  |  |  |  |  |  |
| CC(C)C(c1cccc(NS(=O)(=O)c2ccc(Cl)cc2)c1)c1c(O)c2c(oc1=O)CCCCCC2 (stereo not shown) [Example 373, 4-Chloro-N-[3-[1-(6,7,8,9,10-hexahydro-4-hydroxy-2-oxo-2H-cycloocta[b]pyran-3-yl)-2-methylpropyl]phenyl]-benzenesulfonamide] | 31.8 | 68.9 | 87 | 97.1 | 102 | 105 | 0.0183 µM |  |  |  |  |  |  |
| CC(C)C(c1cccc(NS(=O)(=O)c2cn(C)cn2)c1)c1c(O)c2c(oc1=O)CCCCCC2 (stereo not shown) [Example 374, N-[3-[1-(5,6,7,8,9,10-Hexahydro-4-hydroxy-2-oxo-2H-cycloocta[b]pyran-3-yl)-2-methylpropyl]phenyl]-1-methyl-1H-imidazole4-sulfonamide] | 121 | 121 | 131 | 125 | 129 | 128 | 0.0013 µM and 0.00072 µM |  |  |  |  |  |  |
| CCCC(c1cccc(N)c1)c1c(O)c2c(oc1=O)CCCCCC2 (stereo not shown) [Example 376, 3-[1-(3-Aminophenyl)butyl]-5,6,7,8,9,10-hexahydro4-hydroxy-2H-cycloocta[b]pyran-2-one] | 10.6 | 33.7 | 75.3 | 96.5 | 102 | 103 | 0.195 µM |  |  |  |  |  |  |
| CCCC(c1cccc(NS(=O)(=O)c2ccc(Cl)cc2)c1)c1c(O)c2c(oc1=O)CCCCCC2 (stereo not shown) [Example 377, Benzenesulfonamide, 4-chloro-N-[3-[1-(5,6,7,8,9,10-hexahydro-4-hydroxy-2-oxo-2H-cycloocta[b]pyran-3-yl)butyl]phenyl]-] | 92.9 |  |  |  |  | 94.7 | 0.004 µM | 66.07% and 114.03% | 83.74% and 107.37% | 101.29 |  |  |  |
| CCCC(c1cccc(NS(=O)(=O)c2ccc(C#N)cc2)c1)c1c(O)c2c(oc1=O)CCCCCC2 (stereo not shown) [Example 378, Benzenesulfonamide, 4-cyano-N-[3-[1-(5,6,7,8,9,10-hexahydro-4-hydroxy-2-oxo-2H-cycloocta[b]pyran-3-yl)butyl]phenyl]-] | 103 | 111 | 112 | 118 | 112 | 112 | 0.00106 µM |  |  |  |  |  |  |
| O=c1oc2c(c(O)c1C(c1cccs1)C1CC1)CCCCCC2 (stereo not drawn) [Example 379, 3-(α-Cyclopropylthien-2-ylmethyl)-4-hydroxy-5,6,7,8,9,10-hexahydrocycloocta[b]pyran-2-one] |  | 48.6 | 84.5 | 96.2 | 107 | 113 | 0.0183 µM |  |  |  |  |  |  |
| CCC(c1cccs1)c1c(O)c2c(oc1=O)CCCCCC2 (stereo not drawn) [Example 380, 3-(α-Ethylthien-2-ylmethyl)4-hydroxy-5,6,7,8,9,10-hexahydrocycloocta[b]pyran-2-one] |  | 21.5 | 57.2 | 82.5 | 103 | 108 | 0.0879 µM |  |  |  |  |  |  |
| CCC(c1ccc(C)s1)c1c(O)c2c(oc1=O)CCCCCC2 (stereo not shown) [Example 381] |  | 24.1 | 62.3 | 80.4 | 99.8 | 96.7 | 0.0391 µM |  |  |  |  |  |  |
| O=c1oc2c(c(O)c1C(c1ccc(CO)s1)C1CC1)CCCCCC2 (stereo not shown) [Example 384] | 12.2 | 47.4 | 79.2 | 92.9 | 103 | 102 | 0.0241 µM |  |  |  |  |  |  |
| O=c1oc2c(c(O)c1C(c1ccc(CCO)s1)C1CC1)CCCCCC2 (stereo not shown) [Example 385] |  | 48.5 | 89.5 | 104 | 107 | 107 | 0.0124 µM |  |  |  |  |  |  |
| O=C(NCc1ccc(C(c2c(O)c3c(oc2=O)CCCCCC3)C2CC2)o1)OCc1ccccc1 (stereo not drawn) [Example 388, 3-(α-Cyclopropyl (5-(N-carbobenzoxy)aminomethyl)furfur-2-yl)-4-hydroxy-5,6,7,8,9,10-hexahydrocycloocta[b]pyran-2-one] |  | 42.8 | 76 | 96.5 | 98.2 | 93.7 | 0.0217 µM |  |  |  |  |  |  |
| O=C(NCc1ccc(C(c2c(O)c3c(oc2=O)CCCCCC3)C2CC2)s1)OCc1ccccc1 (stereo not drawn) [Example 389, 3-(α-Cyclopropyl (5-(N-carbobenzoxy)aminomethyl)thien-2-ylmethyl)-4-hydroxy-5,6,7,8,9,10-hexahydrocycloocta[b]pyran-2-one] |  | 21.1 | 58 | 78.7 | 96.4 | 98.7 | 0.0462 µM |  |  |  |  |  |  |
| Cc1sc(C(c2c(O)c3c(oc2=O)CCCCCC3)C2CC2)cc1CO (stereo not shown) [Example 394] | 72.7 | 102 | 109 | 115 | 120 | 123 | 0.00604 µM |  |  |  |  |  |  |
| O=c1oc2c(c(O)c1C(c1cccc(NS(=O)(=O)Nc3ccccc3)c1)C1CC1)CCCCCC2 (stereo not shown) [Example 397] | 35.7 | 92.9 | 105 | 109 | 116 | 113 | 0.0073 µM |  |  |  |  |  |  |
| CN(C)S(=O)(=O)Nc1cccc(C(c2c(O)c3c(oc2=O)CCCCCC3)C2CC2)c1 (stereo not shown) [Example 398, N'-[3-[cyclopropyl(5,6,7,8,9,10-hexahydro4-hydroxy-2-oxo-2H-cycloocta[b]pyran-3-yl)methyl]phenyl]-N,N-dimethyl-sulfamide] | 10.5 | 40.9 | 74.2 | 91.5 | 105 | 105 | 0.0415 µM |  |  |  |  |  |  |
| CN1CCN(S(=O)(=O)Nc2cccc(C(c3c(O)c4c(oc3=O)CCCCCC4)C3CC3)c2)CC1 (stereo not shown) [Example 399, N-[3-[Cyclopropyl(5,6,7,8,9,10-hexahydro-4-hydroxy-2-oxo-2H-cycloocta[b]pyran-3-yl)methyl]phenyl]4-methyl-1-piperazinesulfonamide] |  | 21.6 | 54.1 |  |  |  | 0.186 µM |  |  |  |  |  |  |
| O=c1oc2c(c(O)c1C(c1cccc(S(=O)(=O)Nc3ccccc3)c1)C1CC1)CCCCCC2 (stereo not shown) [Example 400, N-Phenyl-3-[cyclopropyl(5,6,7,8,9, 10-hexahydro-4-hydroxy-2-oxo-2H-cycloocta[b]pyran-3-yl)methyl]-benzenesulfonamide] | 17.4 | 54.8 | 78.7 | 94.7 | 114 | 109 | 0.0358 µM |  |  |  |  |  |  |
| N#Cc1ccc(S(=O)(=O)Nc2cccc(C(c3c(O)c4c(oc3=O)CCCCCC4)C3CC3)c2)cc1 (stereo not shown) [Example 402, Sodium Salt of 4-Cyano-N-[3-[cyclopropyl(5,6,7,8,9,10-hexahydro4-hydroxy-2-oxo-2H-cycloocta[b]pyran-3-yl)methyl]phenyl]-benzenesulfonamide] |  |  |  |  |  |  | 0.00062 µM | 100.22% | 98.03% | 98.47 | 103.69 | 106.4 | 110.07 |
